The values that follow come from PubChem BioAssay (NCI).

Values joined by “and” are separate entries in the source; they are usually repeats but may differ in a detail not shown here. Equal entries are not always repeated.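 Test compounds were applied to cells in 96-well plates for 48 hours at 5 doses. Abbreviation: GI50, concentration required for 50% inhibition of growth. Definition used: TGI = concentration required for complete inhibition of growth.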

Test systems include RXF 393 renal; KM12 colon; 786-0 renal; CCRF-CEM leukemia; PC-3 prostate; HCT-15 colon; COLO 205 colon; HL-60(TB) leukemia; BT-549 breast; SW-620 colon.
What all share (test): NCI tumour cell line growth inhibition, 48 h

Regarding `COc1ccc(C(SCC(N)C(=O)O)(c2ccccc2)c2ccccc2)cc1` (stereo not given), the GI50 in the experiment on RXF 393 renal was 0.19 µM; in the experiment with KM12 colon it was 0.239 µM; in the experiment with 786-0 renal, 0.209 µM; in the experiment on CCRF-CEM leukemia it was 0.0992 µM; in the experiment on PC-3 prostate, 0.185 µM; with HCT-15 colon, 0.451 µM. Also, the GI50 in the experiment with COLO 205 colon is 0.3 µM; in the experiment on HL-60(TB) leukemia, 0.136 µM; in the experiment with BT-549 breast, 2.72 µM; with SW-620 colon, 0.0745 µM. Moreover, the TGI was greater than 100 µM in the experiment with RXF 393 renal; 21.3 µM in the experiment with KM12 colon; greater than 100 µM in the experiment with CCRF-CEM leukemia; greater than 100 µM with PC-3 prostate; greater than 72.2 µM with HCT-15 colon; 15.8 µM with COLO 205 colon. For the same compound, the TGI in the experiment on BT-549 breast and in the experiment with SW-620 colon was greater than 100 µM each time.
On to `Clc1ccc2c(c1)N(CCCN1CCCC1)c1ccccc1S2`, for which the GI50 with RXF 393 renal is 3.47 µM; in the experiment with KM12 colon, 5.14 µM; in the experiment with 786-0 renal, 5.38 µM; in the experiment with CCRF-CEM leukemia, 3.93 µM; with PC-3 prostate it was 4.38 µM; in the experiment with HCT-15 colon it was 3.72 µM. Moreover, the GI50 in the experiment on COLO 205 colon was 2.5 µM; in the experiment on HL-60(TB) leukemia, 4.34 µM; in the experiment on BT-549 breast, 11.8 µM; with SW-620 colon it was 10.7 µM. For the same compound, the TGI in the experiment on RXF 393 renal was 12.1 µM; in the experiment on KM12 colon, 18.7 µM; in the experiment on 786-0 renal it was 19.3 µM; in the experiment with CCRF-CEM leukemia, 14.2 µM; in the experiment with PC-3 prostate, 16.1 µM; with HCT-15 colon it was 13.5 µM. The TGI stood at 7.34 µM in the experiment on COLO 205 colon, 16.8 µM in the experiment with HL-60(TB) leukemia, 24.4 µM with BT-549 breast and 25.8 µM in the experiment with SW-620 colon.
With `CN(C)CCNC(=O)C(C)(C)Oc1ccc(C(=O)c2ccc(Cl)cc2)cc1Cl`, the GI50 in the experiment with RXF 393 renal is 9.94 µM; in the experiment on 786-0 renal it was 3.37 µM; in the experiment with CCRF-CEM leukemia, 5.31 µM; in the experiment with PC-3 prostate it was 5.84 µM; in the experiment with HCT-15 colon, 2.71 µM; in the experiment on COLO 205 colon, 4.41 µM. Further, in the experiment with HL-60(TB) leukemia, the GI50 is 2.82 µM. For the same compound, the TGI in the experiment on RXF 393 renal is 21.7 µM; in the experiment on KM12 colon it was 23 µM; in the experiment on 786-0 renal it was 13.6 µM; in the experiment on CCRF-CEM leukemia, greater than 77.3 µM; with PC-3 prostate, 24 µM; in the experiment on HCT-15 colon it was 7.12 µM and 11.2 µM. Moreover, the TGI was 3.7 µM in the experiment with COLO 205 colon, greater than 29.1 µM with HL-60(TB) leukemia, 23.9 µM with BT-549 breast and 18.3 µM in the experiment on SW-620 colon.
With `COc1ccc2c(CN3CCC(C(=O)O)CC3)cc3cc4c(cc3c2c1)OCO4`, the GI50 with RXF 393 renal is 1.14 µM; in the experiment on KM12 colon it was 2.52 µM; with 786-0 renal, 2.41 µM; with CCRF-CEM leukemia it was 1 µM; in the experiment with PC-3 prostate it was 2.26 µM; in the experiment on HCT-15 colon, 2.76 µM. Further, the GI50 with COLO 205 colon is 1.55 µM; in the experiment with HL-60(TB) leukemia it was 3.97 µM; in the experiment with BT-549 breast, 4.03 µM; in the experiment with SW-620 colon it was 2.51 µM. For the same compound, the TGI in the experiment with RXF 393 renal was found to be 3.6 µM; in the experiment with KM12 colon, 10.4 µM; in the experiment on 786-0 renal it was 14.2 µM; in the experiment on CCRF-CEM leukemia, 6.5 µM; in the experiment with PC-3 prostate it was 6.05 µM; in the experiment on HCT-15 colon, 16.7 µM. The TGI in the experiment with COLO 205 colon amounted to 4.33 µM; in the experiment on HL-60(TB) leukemia, 15.3 µM; in the experiment with BT-549 breast, 17.6 µM; in the experiment on SW-620 colon it was 39.4 µM.
In the case of `Cl.Fc1c[c-]c(-c2ccccn2)c(F)c1.[Pt].c1ccc(P(c2ccccc2)C([PH+](c2ccccc2)c2ccccc2)[PH+](c2ccccc2)c2ccccc2)cc1`, the GI50 is 3.09 µM in the experiment with RXF 393 renal; 3.55 µM with KM12 colon; 3.34 µM with 786-0 renal; 3.26 µM in the experiment with CCRF-CEM leukemia; 2.17 µM with PC-3 prostate; 6.88 µM in the experiment with HCT-15 colon. Moreover, the GI50 was 1.87 µM in the experiment on COLO 205 colon, 1.95 µM in the experiment on HL-60(TB) leukemia, 3.24 µM in the experiment with BT-549 breast and 3.19 µM in the experiment on SW-620 colon. The TGI is 15.1 µM with RXF 393 renal; 14.7 µM in the experiment on KM12 colon; 20.6 µM in the experiment on 786-0 renal; greater than 100 µM with CCRF-CEM leukemia; greater than 100 µM in the experiment on PC-3 prostate; greater than 100 µM with HCT-15 colon. Besides, the TGI with COLO 205 colon was found to be 3.92 µM; in the experiment on HL-60(TB) leukemia, 6.07 µM; in the experiment on BT-549 breast, 17.1 µM; with SW-620 colon, 14.6 µM.
Consider `C[C@H](Nc1ncnc2nc[nH]c12)c1cc2ccc(F)cc2nc1-c1ccccn1`, for which the GI50 in the experiment on RXF 393 renal was 4.26 µM; with KM12 colon, greater than 100 µM; with 786-0 renal, 14.3 µM; in the experiment with CCRF-CEM leukemia, greater than 70.2 µM; in the experiment on PC-3 prostate, 25 µM; with HCT-15 colon, greater than 100 µM. Besides, the GI50 with COLO 205 colon is greater than 100 µM; in the experiment on HL-60(TB) leukemia, 30.3 µM; in the experiment on BT-549 breast, 36.2 µM; in the experiment on SW-620 colon, greater than 100 µM. Further, the TGI in the experiment with RXF 393 renal was 59.2 µM; in the experiment with KM12 colon, greater than 100 µM; in the experiment with 786-0 renal it was greater than 100 µM; in the experiment on CCRF-CEM leukemia, greater than 100 µM; with PC-3 prostate, greater than 100 µM; in the experiment on HCT-15 colon it was greater than 100 µM. Further, the TGI in the experiment with COLO 205 colon, in the experiment with HL-60(TB) leukemia, in the experiment with BT-549 breast and in the experiment on SW-620 colon was greater than 100 µM in each case.
